Laboratory results as given in patent publication US20090196918A1, “Liposomal formulations of hydrophobic lactone drugs in the presence of metal ions” (University of Kentucky Research Foundation, priority 2008, published 2009).

Experiments:
[1] = Release of DB-67 from liposomes (dialysis at 37° C., HPLC analysis); format: physicochemical
[2] = Drug loading of DB-67 into liposomes by passive encapsulation
[3] = animal data, intravenous administration; cited from earlier work

drug retention in liposomes as a function of pH ([1]; increasing pH, intravesicular cyclodextrin constant at 50 mM (FIG. 4)): increases drug retention
release profile of DB-67 from liposomes ([1]; liposomes prepared at pH 4, citrate buffer, 0.1 M hydroxypropyl-β-cyclodextrin (FIG. 2)): uniform release profile
release profile of DB-67 from liposomes ([1]; liposomes prepared at pH 7.4, citrate buffer, 0.1 M hydroxypropyl-β-cyclodextrin (FIG. 3)): uniform release
DB-67 concentration of liposome suspension that could be prepared (loading) ([2]; absence of cyclodextrin, all drug is entrapped): 0.05 mg/mL
DB-67 concentration of liposome suspension that could be prepared (loading) ([2]; intraliposomal pH increased to 9.5, with hydroxypropyl-β-cyclodextrin): 1.4 mg/mL
SMILES: CC[C@@]1(O)C(=O)OCc2c1cc1n(c2=O)Cc2c-1nc1ccc(O)cc1c2[Si](C)(C)C(C)(C)C [DB-67, 7-t-butyldimethylsilyl-10-hydroxycamptothecin]
lactone to total AUC [3]: > 90%
